Entries after “also recorded” stand apart in the source; their conditions may differ.
Tested on: TPA-induced edema of mouse ears
Assay: TPA-induced mouse ear edema assay of quercetin-3-O-(6″-benzoyl)-β-galactoside (Example 3)
Assay type: in vivo, mouse (CD-1 female)
Conditions: topical, purified compound
Description: The anti-inflammatory activity of quercetin-3-O-(6″-benzoyl)-β-galactoside (Peak 19) was tested in vivo with the 12-O-tetradecanoylphorbol-13-acetate (TPA)-induced mouse ear edema assay. Each of the treatments was topically applied to both ears of at least five CD-1 female mice. Treatments included application of either acetone or curcumin controls or the test extract in 20 μl of acetone twenty minutes prior to application of 1.5 nmol of TPA in acetone. After 7 hours post-treatment, mice were sacrificed and 6 mm diameter ear punch biopsies were taken and weighed. The ratio of the difference in the weight of ear punches between TPA treated groups receiving pretreatments of acetone and the test extract, respectively, to the difference in the weight of ear punches between acetone pretreated groups subsequently treated with TPA and acetone, respectively, indicates the degree of anti-inflammatory activity of the test extract.

With `O=C(OC[C@H]1O[C@@H](Oc2c(-c3ccc(O)c(O)c3)oc3cc(O)cc(O)c3c2=O)[C@H](O)[C@@H](O)[C@H]1O)c1ccccc1` [quercetin-3-O-(6″-benzoyl)-β-galactoside] the “anti-inflammatory activity in the TPA-induced mouse ear edema assay (in words)” value was “potent anti-inflammatory agent; also recorded: highly effective inhibitor of inflammation”.
